Patent US5336673A, “3-substituted cephem compounds” (priority 1990, dated 1994)
≈ marks a conversion by molar mass, not a printed value.

Assays:
[1] = test system: Escherichia coli O 55; assay: Antibacterial activity, MIC by Agar dilution method, standard test strain 7; type: cell-based; settings: Escherichia coli, O55, 18 h
Procedure: (§1) The antibacterial activity was determined by an Agar dilution method as described below.
(§2) That is, the two-fold serial dilutions of the antibacterial compounds (1000 μg compound/ml) were prepared and dispersed in Muller Hinton Agar in a petri dish to a concentration of 100~0.002 μg/ml. The culture broths of standard test strains were inoculated on the medium to a concentration 10^7 CFU/ml, and incubated at 37° C. for 18 hours. The concentration of compounds(I) at which the strains were not grown was regarded as minimum inhibition concentration (MIC).
(§3) The results of antibacterial activity test of the representative examples of the compound (I) against 20 standard test strains shown in terms of MIC were indicated in Table 1.

[2] = test system: Enterobacter cloacae P99; assay: Antibacterial activity, MIC by Agar dilution method, standard test strain 19; type: cell-based; settings: P99, 18 h
Procedure: as §1, §2, §3
19. Enterobacter cloacae P99

[3] = biological target: T1, β-lactamase from E. coli TEM (Escherichia coli, UniProt P62593); assay: Stability against β-lactamase, relative hydrolysis; type: biochemical; settings: E. coli TEM enzyme; 100 μM; relative(percentage), Cephaloridine taken as 100; OD at 260 nm
T1 construct: directly isolated from Enterobacter cloacae P99, E. coli TEM and Citrobacter freundii; endogenous in cells; host or cells: E. coli TEM (plasmid-carried enzyme of the strain)
Procedure: (§4) In order to establish the usefulness in clinical applications of the compounds provided by the invention, the compound of Example 18 was tested for stability against the β-lactamase and for antibacterial activity on systemic infection model.
(§5) First, the stability against the β-lactamase was tested by determining the relative(percentage) hydrolysis of the compound of Example 18, relative to that of Cephaloridine, taking the absolute rate of Cephaloridine as 100.
(§6) The β-lactamases employed in the test were directly isolated from Enterobacter cloacae P99, E. coli TEM and Citrobacter freundii, and the antibiotics for comparison were Cephaloridine, Cephradine, Cefoperazone and Cefotaxime.
(§7) Cephaloridine, other known antibiotics and the compound of Example 18 were reacted with each of the enzymes isolated from the strains and the OD were determined at 260 nm, λmax of Cephaloridine. The relative hydrolysis of various compounds were calculated relative to the OD of Cephaloridine.

[4] = biological target: T2, β-lactamase from Citrobacter freundii (Citrobacter freundii, UniProt P05193); assay: Stability against β-lactamase, relative hydrolysis; type: biochemical; settings: Citrobacter freundii enzyme; 100 μM; relative(percentage), Cephaloridine taken as 100; OD at 260 nm
T2 construct: directly isolated from Enterobacter cloacae P99, E. coli TEM and Citrobacter freundii; endogenous in cells
Procedure: as §4, §5, §6, §7

[5] = test system: Staphyloccus aureus 285; assay: Antibacterial activity, MIC by Agar dilution method, standard test strain 5; type: cell-based; settings: 10^7 CFU/ml, 37° C., 18 hours
Procedure: as §1, §2, §3
5. Staphyloccus aureus 285

[6] = test system: β-lactamase producing strains such as Pseudomonas aeruginosa and Enterobacter cloacae; assay: Antibacterial activity against β-lactamase producing strains (summary in words); type: cell-based
Procedure: as §1, §2

[7] = test system: Pseudomonas aeruginosa 1592E; assay: Antibacterial activity, MIC by Agar dilution method, standard test strain 13; type: cell-based; settings: 10^7 CFU/ml, 37° C., 18 hours
Procedure: as §1, §2, §3
13. Pseudomonas aeruginosa 1592E

[8] = test system: Salmonella typhimurium; assay: Antibacterial activity, MIC by Agar dilution method, standard test strain 16; type: cell-based; settings: Salmonella enterica, 10^7 CFU/ml, 37° C., 18 hours
Procedure: as §1, §2, §3
16. Salmonella typhimurium

[9] = test system: Staphylococcus aureus 503; assay: Antibacterial activity, MIC by Agar dilution method, standard test strain 6; type: cell-based; settings: 10^7 CFU/ml, 37° C., 18 hours
Procedure: as §1, §2, §3
6. Staphylococcus aureus 503

[10] = test system: Escherichia coli DC O; assay: Antibacterial activity, MIC by Agar dilution method, standard test strain 8; type: cell-based; settings: Escherichia coli, 18 h
Procedure: as §1, §2, §3

[11] = test system: Escherichia coli 1507E; assay: Antibacterial activity, MIC by Agar dilution method, standard test strain 11; type: cell-based; settings: Escherichia coli, 1507E, 18 h
Procedure: as §1, §2, §3

[12] = test system: D Streptococcus I; assay: MIC against clinically isolated strains; type: cell-based; settings: 18 h, 20 clinical isolates
Procedure: as §1, §2

[13] = test system: Streptococcus I; assay: MIC against clinically isolated strains; type: cell-based; settings: 20 clinical isolates
Procedure: as §1, §2

[14] = test system: Serratia spp; assay: MIC against clinically isolated strains; type: cell-based; settings: 18 h, 20 clinical isolates
Procedure: as §1, §2

[15] = test system: Pseudomonas aeruginosa; assay: MIC against clinically isolated strains; type: cell-based; settings: 18 h, 20 clinical isolates
Procedure: as §1, §2

[16] = test system: Morganella morganil; assay: MIC against clinically isolated strains; type: cell-based; settings: 18 h, 5 clinical isolates
Procedure: as §1, §2

[17] = test system: Enterobacter cloacae; assay: MIC against clinically isolated strains; type: cell-based; settings: 20 clinical isolates
Procedure: as §1, §2

[18] = test system: Escherichia coli; assay: MIC against clinically isolated strains; type: cell-based; settings: 18 h, 20 clinical isolates
Procedure: as §1, §2

[19] = test system: Pseudomonas I; assay: MIC against clinically isolated strains; type: cell-based; settings: 18 h, 19 clinical isolates
Procedure: as §1, §2

[20] = test system: Proteus vulgaris; assay: MIC against clinically isolated strains; type: cell-based; settings: 18 h, 5 clinical isolates
Procedure: as §1, §2

[21] = test system: Streptococcus II; assay: MIC against clinically isolated strains; type: cell-based; settings: 18 h, 17 clinical isolates
Procedure: as §1, §2

[22] = test system: Proteus mirabilis; assay: MIC against clinically isolated strains; type: cell-based; settings: 18 h, 4 clinical isolates
Procedure: as §1, §2

[23] = test system: Enterococcus II; assay: MIC against clinically isolated strains; type: cell-based; settings: 20 clinical isolates
Procedure: as §1, §2

[24] = test system: Enterococcus I; assay: MIC against clinically isolated strains; type: cell-based; settings: 18 h, 20 clinical isolates
Procedure: as §1, §2

[25] = test system: Pseudomonas II; assay: MIC against clinically isolated strains; type: cell-based; settings: 18 h, 19 clinical isolates
Procedure: as §1, §2

[26] = test system: Providencia rettgeri; assay: MIC against clinically isolated strains; type: cell-based; settings: 18 h, 6 clinical isolates
Procedure: as §1, §2

[27] = test system: D Streptococcus II; assay: MIC against clinically isolated strains; type: cell-based; settings: 18 h, 20 clinical isolates
Procedure: as §1, §2

T2 sequence (P05193 21-381): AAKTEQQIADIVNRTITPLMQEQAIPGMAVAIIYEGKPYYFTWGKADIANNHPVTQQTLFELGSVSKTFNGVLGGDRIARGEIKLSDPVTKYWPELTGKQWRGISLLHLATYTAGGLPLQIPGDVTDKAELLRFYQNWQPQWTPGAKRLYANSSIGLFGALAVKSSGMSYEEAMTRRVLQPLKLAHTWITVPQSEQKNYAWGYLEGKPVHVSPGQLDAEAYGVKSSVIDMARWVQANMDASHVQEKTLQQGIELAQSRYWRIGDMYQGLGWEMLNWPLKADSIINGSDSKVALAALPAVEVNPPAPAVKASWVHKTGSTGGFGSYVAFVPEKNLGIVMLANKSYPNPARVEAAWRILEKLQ
T1 sequence (P62593 24-286 limits assumed): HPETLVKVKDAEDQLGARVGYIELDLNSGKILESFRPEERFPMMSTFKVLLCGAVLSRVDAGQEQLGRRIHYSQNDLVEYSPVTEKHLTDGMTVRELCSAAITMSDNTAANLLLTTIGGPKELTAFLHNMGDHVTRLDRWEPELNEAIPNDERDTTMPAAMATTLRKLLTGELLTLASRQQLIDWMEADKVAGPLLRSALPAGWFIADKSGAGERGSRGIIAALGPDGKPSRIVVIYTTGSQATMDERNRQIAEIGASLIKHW

Which MIC [1] does the source give for `CON=C(C(=O)NC1C(=O)N2C(C(=O)[O-])=C(C[n+]3nn(N)c4ccccc43)CSC12)c1csc(N)n1` [Example 18, (6R,7R)-7-[(Z)-2-(2-aminothiazol-4-yl)-2-methoxyiminoacetamido]-3-[(1-aminobenzotriazol-3-ium)methyl]-ceph-3-em-4-carboxylate] here?
The MIC was 0.007 µg/mL (≈ 0.0132 µM).

What about the MIC [2] of the same compound?
Its MIC is 12.5 µg/mL (≈ 23.6 µM).

What about the “Relative hydrolysis by β-lactamase” value [3] of the same compound?
Its value is 0.0.

What about the “Relative hydrolysis by β-lactamase” value [4] of the same compound?
Its value is 0.2.

What about the MIC [5] of the same compound?
The MIC was 0.781 µg/mL (≈ 1.47 µM).

And the “antibacterial activity (in words)” value [6]?
Its value is “superior activity”.

And the MIC [7]?
The MIC was 1.56 µg/mL (≈ 2.95 µM).

And the MIC [8]?
The MIC was 0.195 µg/mL (≈ 0.368 µM).

And the MIC [9]?
Its MIC is 0.195 µg/mL (≈ 0.368 µM).

And the MIC [10]?
The MIC was 0.025 µg/mL (≈ 0.0472 µM).

And the MIC [11]?
Its MIC is 0.025 µg/mL (≈ 0.0472 µM).

What about the MIC [12] of the same compound?
The MIC was 3.12 to 100 µg/mL (≈ 5.9 to 189 µM).

And the MIC50 [12]?
Its MIC50 is 12.5 µg/mL (≈ 23.6 µM).

What about the MIC90 [12] of the same compound?
Its MIC90 is 100 µg/mL (≈ 189 µM).

What about the “MIC Range” value [13] of the same compound?
The value was 0.004 to 12.5 µg/mL.

And the MIC50 ([13]; 18 h)?
The MIC50 was 0.025 µg/mL (≈ 0.0472 µM).

What about the MIC90 ([13]; 18 h) of the same compound?
The MIC90 was 6.25 µg/mL (≈ 11.8 µM).

And the MIC [14]?
The MIC was 0.013 to 0.098 µg/mL (≈ 0.0245 to 0.185 µM).

And the MIC50 [14]?
The MIC50 was 0.025 µg/mL (≈ 0.0472 µM).

What about the MIC90 [14] of the same compound?
The MIC90 was 0.049 µg/mL (≈ 0.0925 µM).

And the MIC [15]?
The MIC was 1.56 to 25 µg/mL (≈ 2.95 to 47.2 µM).

What about the MIC50 [15] of the same compound?
The MIC50 was 6.25 µg/mL (≈ 11.8 µM).

What about the MIC90 [15] of the same compound?
The MIC90 was 12.5 µg/mL (≈ 23.6 µM).

What about the MIC [16] of the same compound?
The MIC was 0.004 to 0.025 µg/mL (≈ 0.00755 to 0.0472 µM).

What about the MIC50 [16] of the same compound?
The MIC50 was 0.013 µg/mL (≈ 0.0245 µM).

What about the MIC90 [16] of the same compound?
The MIC90 was 0.025 µg/mL (≈ 0.0472 µM).

What about the “MIC Range” value [17] of the same compound?
Its value is 0.007 to 12.5 µg/mL.

And the MIC50 ([17]; 18 h)?
Its MIC50 is 0.025 µg/mL (≈ 0.0472 µM).

And the MIC90 ([17]; 18 h)?
Its MIC90 is 0.391 µg/mL (≈ 0.738 µM).

And the MIC [18]?
The MIC was 0.007 to 0.195 µg/mL (≈ 0.0132 to 0.368 µM).

What about the MIC50 [18] of the same compound?
Its MIC50 is 0.013 µg/mL (≈ 0.0245 µM).

And the MIC90 [18]?
The MIC90 was 0.025 µg/mL (≈ 0.0472 µM).

What about the MIC [19] of the same compound?
The MIC was 0.195 to 12.5 µg/mL (≈ 0.368 to 23.6 µM).

What about the MIC50 [19] of the same compound?
Its MIC50 is 1.56 µg/mL (≈ 2.95 µM).

What about the MIC90 [19] of the same compound?
The MIC90 was 6.25 µg/mL (≈ 11.8 µM).

And the MIC [20]?
Its MIC is 0.025 to 0.195 µg/mL (≈ 0.0472 to 0.368 µM).

And the MIC50 [20]?
The MIC50 was 0.098 µg/mL (≈ 0.185 µM).

And the MIC90 [20]?
Its MIC90 is 0.195 µg/mL (≈ 0.368 µM).

And the MIC [21]?
Its MIC is 0.002 to 0.013 µg/mL (≈ 0.00378 to 0.0245 µM).

What about the MIC50 [21] of the same compound?
The MIC50 was 0.004 µg/mL (≈ 0.00755 µM).

What about the MIC90 [21] of the same compound?
The MIC90 was 0.007 µg/mL (≈ 0.0132 µM).

What about the MIC [22] of the same compound?
Its MIC is 0.013 to 0.098 µg/mL (≈ 0.0245 to 0.185 µM).

And the MIC50 [22]?
Its MIC50 is 0.013 µg/mL (≈ 0.0245 µM).

And the MIC90 [22]?
The MIC90 was 0.098 µg/mL (≈ 0.185 µM).

What about the “MIC Range” value [23] of the same compound?
The value was 0.004 to 25 µg/mL.

And the MIC50 ([23]; 18 h)?
Its MIC50 is 0.025 µg/mL (≈ 0.0472 µM).

And the MIC90 ([23]; 18 h)?
Its MIC90 is 0.098 µg/mL (≈ 0.185 µM).

And the MIC [24]?
Its MIC is 0.007 to 0.195 µg/mL (≈ 0.0132 to 0.368 µM).

What about the MIC50 [24] of the same compound?
The MIC50 was 0.025 µg/mL (≈ 0.0472 µM).

What about the MIC90 [24] of the same compound?
Its MIC90 is 0.049 µg/mL (≈ 0.0925 µM).

What about the MIC [25] of the same compound?
The MIC was 0.391 to 12.5 µg/mL (≈ 0.738 to 23.6 µM).

And the MIC50 [25]?
Its MIC50 is 1.56 µg/mL (≈ 2.95 µM).

And the MIC90 [25]?
The MIC90 was 6.25 µg/mL (≈ 11.8 µM).

What about the MIC [26] of the same compound?
Its MIC is 0.007 to 0.195 µg/mL (≈ 0.0132 to 0.368 µM).

And the MIC50 [26]?
The MIC50 was 0.025 µg/mL (≈ 0.0472 µM).

What about the MIC90 [26] of the same compound?
Its MIC90 is 0.098 µg/mL (≈ 0.185 µM).

And the MIC [27]?
Its MIC is 3.12 to 100 µg/mL (≈ 5.9 to 189 µM).

What about the MIC50 [27] of the same compound?
Its MIC50 is 25 µg/mL (≈ 47.2 µM).

What about the MIC90 [27] of the same compound?
The MIC90 was 50 µg/mL (≈ 94.4 µM).
